Experimental data published in ChEMBL document CHEMBL2396574, “Design, synthesis and evaluation of retinoids with novel bulky hydrophobic partial structures” (Bioorg Med Chem, 2013).
Activity calls are given as the source filed them. The rule behind the calls is not given here.

Columns and labels:
[1] = molecular target: T1, Retinoic acid receptor RXR-beta (Homo sapiens) (UniProt P28702); experiment: Transactivation of full-length RXRbeta (unknown origin) expressed in African green monkey COS1 cells at 1000 nM by luciferase reporter gene assay; type: cell-based; details: COS-1
T1 sequence (whole entry): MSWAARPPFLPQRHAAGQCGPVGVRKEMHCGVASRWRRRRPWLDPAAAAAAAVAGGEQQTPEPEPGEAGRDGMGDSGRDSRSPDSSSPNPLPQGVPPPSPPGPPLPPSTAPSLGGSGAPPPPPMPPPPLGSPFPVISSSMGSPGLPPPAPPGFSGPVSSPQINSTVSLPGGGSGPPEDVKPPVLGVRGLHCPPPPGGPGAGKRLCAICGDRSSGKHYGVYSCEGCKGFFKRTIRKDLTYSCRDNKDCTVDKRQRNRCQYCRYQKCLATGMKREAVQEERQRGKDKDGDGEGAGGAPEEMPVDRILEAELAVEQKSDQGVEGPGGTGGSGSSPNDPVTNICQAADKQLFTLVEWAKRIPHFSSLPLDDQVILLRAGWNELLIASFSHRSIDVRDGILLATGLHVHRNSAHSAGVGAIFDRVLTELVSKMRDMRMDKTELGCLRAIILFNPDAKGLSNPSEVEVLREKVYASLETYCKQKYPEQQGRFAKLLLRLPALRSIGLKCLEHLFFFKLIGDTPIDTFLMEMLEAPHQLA

HL-60 [2] = experiment: Induction of human HL60 cell differentiation into myeloid cells at 10 nM after 4 days by NBT reduction assay relative to control; type: functional
[3] = molecular target: T2, Retinoic acid receptor beta (Homo sapiens) (UniProt P10826); experiment: Transactivation of Gal4-fused RARbeta (unknown origin) expressed in African green monkey COS1 cells at 100 nM by luciferase reporter gene assay relative to DMSO-treated control; type: cell-based; details: COS-1
T2 sequence (whole entry): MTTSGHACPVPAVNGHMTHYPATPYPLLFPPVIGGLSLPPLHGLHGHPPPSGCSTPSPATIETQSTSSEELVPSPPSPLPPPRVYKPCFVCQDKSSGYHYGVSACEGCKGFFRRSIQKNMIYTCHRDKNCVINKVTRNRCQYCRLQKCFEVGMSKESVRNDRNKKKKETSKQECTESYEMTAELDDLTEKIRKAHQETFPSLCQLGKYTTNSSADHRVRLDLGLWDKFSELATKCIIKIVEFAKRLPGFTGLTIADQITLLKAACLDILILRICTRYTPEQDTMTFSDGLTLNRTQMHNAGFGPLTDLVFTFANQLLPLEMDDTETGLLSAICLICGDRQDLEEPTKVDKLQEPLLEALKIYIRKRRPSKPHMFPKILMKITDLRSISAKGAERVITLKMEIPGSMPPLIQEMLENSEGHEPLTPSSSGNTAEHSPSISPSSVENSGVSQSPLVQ

[4] = molecular target: T3, Retinoic acid receptor gamma (Homo sapiens) (UniProt P13631); experiment: Transactivation of Gal4-fused RARgamma (unknown origin) expressed in African green monkey COS1 cells at 100 nM by luciferase reporter gene assay relative to DMSO-treated control; type: cell-based; details: COS-1
T3 sequence (whole entry): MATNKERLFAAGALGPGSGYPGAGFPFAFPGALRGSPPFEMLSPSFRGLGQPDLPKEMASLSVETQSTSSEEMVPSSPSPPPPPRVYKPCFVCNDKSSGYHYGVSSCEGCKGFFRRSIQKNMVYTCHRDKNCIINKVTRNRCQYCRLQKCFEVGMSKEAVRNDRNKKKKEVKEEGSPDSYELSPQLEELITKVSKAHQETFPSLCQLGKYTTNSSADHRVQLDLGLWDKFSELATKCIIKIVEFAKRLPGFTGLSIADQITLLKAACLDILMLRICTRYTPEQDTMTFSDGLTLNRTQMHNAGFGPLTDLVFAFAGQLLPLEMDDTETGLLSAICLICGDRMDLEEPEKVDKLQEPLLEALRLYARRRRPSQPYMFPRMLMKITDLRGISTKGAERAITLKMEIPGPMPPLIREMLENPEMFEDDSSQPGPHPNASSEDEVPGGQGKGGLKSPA

[5] = molecular target: T4, Retinoic acid receptor RXR-gamma (Homo sapiens) (UniProt P48443); experiment: Transactivation of full-length RXRgamma (unknown origin) expressed in African green monkey COS1 cells at 1000 nM by luciferase reporter gene assay; type: cell-based; details: COS-1
T4 sequence (whole entry): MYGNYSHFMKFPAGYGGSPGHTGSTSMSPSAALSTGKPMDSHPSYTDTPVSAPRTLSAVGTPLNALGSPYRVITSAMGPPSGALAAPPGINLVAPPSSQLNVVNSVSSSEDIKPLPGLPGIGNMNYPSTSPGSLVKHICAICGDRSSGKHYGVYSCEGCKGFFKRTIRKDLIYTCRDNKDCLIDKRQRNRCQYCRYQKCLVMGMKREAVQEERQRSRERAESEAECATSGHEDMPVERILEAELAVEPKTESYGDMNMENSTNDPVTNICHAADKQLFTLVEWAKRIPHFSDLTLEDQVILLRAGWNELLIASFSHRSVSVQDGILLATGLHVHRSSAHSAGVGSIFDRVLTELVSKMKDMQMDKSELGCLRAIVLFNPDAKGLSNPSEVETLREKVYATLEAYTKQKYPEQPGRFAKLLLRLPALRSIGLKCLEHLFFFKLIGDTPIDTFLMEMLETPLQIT

HL-60 [6] = experiment: Induction of human HL60 cell differentiation into myeloid cells at 100 nM after 4 days by NBT reduction assay relative to control; type: functional

Row | Structure (SMILES) | Activity [1] | Activity (HL-60 [2]) [%] | fold change (FC) [3] | fold change (FC) [4] | Activity [5] | Activity (HL-60 [6]) [%]
1 | CC12CCCc3cc(C(=O)Nc4ccc(C(=O)O)cc4)cc(c31)CCC2 | inactive | 36 | 20 | 4 | inactive | 
2 | O=C(Nc1ccc(C(=O)O)c(O)c1)c1cc2c3c(c1)CCCCC3CCCC2 | inactive | 29 | 11 | 2 | inactive | 41
3 | O=C(O)c1ccc(NC(=O)c2cc3c4c(c2)CCCCC4CCCC3)nc1 | inactive |  | 45 | 56 | inactive | 
4 | CC12CCCc3cc(NC(=O)c4ccc(C(=O)O)cn4)cc(c31)CCC2 | inactive | 5 | 26 | 2 | inactive | 16
5 | CC12CCCc3cc(C(=O)Nc4ccc(C(=O)O)c(O)c4)cc(c31)CCC2 | inactive | 17 | 7 | 1 | inactive | 32
6 | O=C(O)c1ccc(NC(=O)c2cc3c4c(c2)CCCC4CCC3)cc1 | inactive | 27 | 18 | 3 | inactive | 38
7 | COc1cc(NC(=O)c2cc3c4c(c2)CCCCC4CCCC3)ccc1C(=O)O | inactive |  | 1 | 2 | inactive | 
8 | CC12CCCc3cc(C(=O)Nc4ccc(C(=O)O)c(Cl)c4)cc(c31)CCC2 | inactive | 19 | 8 | 1 | inactive | 21
9 | O=C(O)c1ccc(C(=O)Nc2cc3c4c(c2)CCCC4CCC3)nc1 | inactive | 2 | 16 | 7 | inactive | 5
10 | CC12CCCc3cc(C(=O)Nc4ccc(C(=O)O)cn4)cc(c31)CCC2 | inactive | 41 | 40 | 25 | inactive | 61
11 | CC12CCCc3cc(NC(=O)c4ccc(C(=O)O)cc4)cc(c31)CCC2 | inactive | 12 | 12 | 1 | inactive | 
12 | O=C(O)c1ccc(C(=O)Nc2cc3c4c(c2)CCCCC4CCCC3)cc1 | inactive | 13 | 13 | 1 | inactive | 53
13 | O=C(O)c1ccc(NC(=O)c2cc3c4c(c2)CCCC4CCC3)nc1 | inactive | 54 | 40 | 20 | inactive | 59
14 | CC12CCCc3cc(C(=O)Nc4ccc(C(=O)O)s4)cc(c31)CCC2 | inactive |  | 1 | 1 | inactive | 
15 | CC1(C)CCC(C)(C)c2cc(NC(=O)c3ccc(C(=O)O)cc3)ccc21 [TAMIBAROTENE] | inactive | 60 |  |  | inactive | 68
16 | O=C(O)c1ccc(C(=O)Nc2cc3c4c(c2)CCCC4CCC3)s1 | inactive |  |  | 1 | inactive | 
17 | O=C(O)c1ccc(C(=O)Nc2cc3cc(c2)CCCCCCCCCC3)cc1 | inactive | 16 | 8 | 1 | inactive | 37
18 | CC12CCCc3cc(NC(=O)c4ccc(C(=O)O)nc4)cc(c31)CCC2 | inactive |  |  | 1 | inactive | 
19 | O=C(Nc1ccc(C(=O)O)c(O)c1)c1cc2c3c(c1)CCCC3CCC2 | inactive | 24 | 6 | 2 | inactive | 42
20 | CC12CCCc3cc(C(=O)Nc4ccc(C(=O)O)c(F)c4)cc(c31)CCC2 | inactive | 18 | 13 | 2 | inactive | 29
21 | CC12CCCc3cc(NC(=O)c4ccc(C(=O)O)s4)cc(c31)CCC2 | inactive |  |  | 1 | inactive | 
22 | O=C(Nc1ccc(C(=O)O)nc1)c1cc2c3c(c1)CCCC3CCC2 | inactive |  |  | 1 | inactive | 
23 | O=C(O)c1ccc(C(=O)Nc2cc3c4c(c2)CCCCC4CCCC3)nc1 | inactive |  | 17 | 2 | inactive | 
24 | O=C(O)c1ccc(NC(=O)c2cc3c4c(c2)CCCCC4CCCC3)cc1 | inactive | 34 | 27 | 10 | inactive | 40
25 | O=C(Nc1ccc(C(=O)O)c(Cl)c1)c1cc2c3c(c1)CCCC3CCC2 | inactive | 16 | 6 | 1 | inactive | 37
26 | COc1cc(NC(=O)c2cc3c4c(c2)CCCC4(C)CCC3)ccc1C(=O)O | inactive | 5 | 3 | 1 | inactive | 17
27 | O=C(Nc1ccc(C(=O)O)s1)c1cc2c3c(c1)CCCC3CCC2 | inactive |  |  | 1 | inactive | 
28 | CC12CCCc3cc(C(=O)Nc4ccc(C(=O)O)nc4)cc(c31)CCC2 | inactive |  |  | 1 | inactive | 
29 | CC1=C(/C=C/C(C)=C/C=C/C(C)=C/C(=O)O)C(C)(C)CCC1 [TRETINOIN] | inactive | 46 |  |  | inactive | 71
30 | O=C(Nc1cc2c3c(c1)CCCC3CCC2)c1ccc(C(=O)O)nc1 | inactive |  |  | 1 | inactive | 
